# How the values were obtained:
# Type in all cases: cell-based
# [1] = system: S. epidermidis ATCC ® 12228 ™; test: MIC, broth microdilution, S. epidermidis; conditions: ≥85% inhibition of OD
# From the text: (§1) Our skin microbiome houses billions of microbes, many of which are commensal and beneficial, however in some instances can trigger harmful skin inflammation. The potential for compounds to promote a healthy skin microbiome by targeting the “bad” bugs and not harming the “good” bugs is an emerging field of study in dermatology. The purpose of this study was to evaluate the antibacterial activity of the Chia seed extract composition of Example 14 compared to control Doxycycline applied in vitro to planktonic bacteria categorized as “good” (M. luteus ATCC® 4698™, S. hominis ATCC® 27847™, S. warneri ATCC® 27836™, S. epidermidis ATCC® 12228™, S. capitis ATCC®27841™, S. simulans ATCC® 27850™) and another six which are categorized as “bad” (S. aureus ATCC™ 29213™, S. aureus MRSA ATCC® 33592™, S. pyogenes ATTC® 19615™, C. acnes ATCC™ 6919™, C. xerosis ATCC® 373™, C. granulosum ATCC® 25564™).
# (§2) Test agents and control were stored at recommended storage temperature until use. Minimum Inhibitory Concentrations (MIC) were determined in vitro using the broth microdilution method. […] Antimicrobial activity was defined as the lowest concentration of each test material that inhibited ≥85% of the optical density (OD) measured in broth media. […]
# [2] = system: C. xerosis ATCC ® 373 ™; test: MIC, broth microdilution, C. xerosis; conditions: ≥85% inhibition of OD
# From the text: as §1, §2
# [3] = system: M. luteus ATCC ® 4698 ™; test: MIC, broth microdilution, M. luteus; conditions: ≥85% inhibition of OD
# From the text: as §1, §2
# [4] = system: S. aureus MRSA ATCC ® 33591 ™; test: MIC, broth microdilution, S. aureus MRSA; conditions: ≥85% inhibition of OD
# [5] = system: C. granulosum ATCC ® 25564 ™; test: MIC, broth microdilution, C. granulosum; conditions: ≥85% inhibition of OD
# From the text: as §1, §2
# [6] = system: “good” skin bacteria strains; test: MIC, broth microdilution, summary over “good” strains; conditions: range over the six “good” strains
# From the text: as §1, §2
# [7] = system: S. hominis ATCC ® 27847 ™; test: MIC, broth microdilution, S. hominis; conditions: ≥85% inhibition of OD
# From the text: as §1, §2
# [8] = system: C. acnes ATCC ® 6919 ™; test: MIC, broth microdilution, C. acnes; conditions: ≥85% inhibition of OD
# From the text: as §1, §2
# [9] = system: S. capitis ATCC ® 27841 ™; test: MIC, broth microdilution, S. capitis; conditions: ≥85% inhibition of OD
# From the text: as §1, §2
# [10] = system: “bad” strains; test: MIC, broth microdilution, summary over “bad” strains; conditions: range over the six “bad” strains
# From the text: as §1, §2
# [11] = system: S. aureus ATCC ® 29213 ™; test: MIC, broth microdilution, S. aureus; conditions: ≥85% inhibition of OD
# From the text: as §1, §2
# [12] = system: S. simulans ATCC ® 27850 ™; test: MIC, broth microdilution, S. simulans; conditions: ≥85% inhibition of OD
# From the text: as §1, §2
# [13] = system: S. pyogenes ATCC ® 19615 ™; test: MIC, broth microdilution, S. pyogenes; conditions: ≥85% inhibition of OD
# From the text: as §1, §2
# [14] = system: S. warneri ATCC ® 27836 ™; test: MIC, broth microdilution, S. warneri; conditions: ≥85% inhibition of OD
# From the text: as §1, §2
substance,measurement,setting,value
Doxycycline hyclate,MIC,[1],(0.00013) % w/v
same,MIC,[1]; mean ± StDev of 3 experiments,1.30 ± 0.45 µg/mL
same,MIC,[2],(0.00003) % w/v
same,MIC,[2]; mean ± StDev of 3 experiments,0.33 ± 0.11 µg/mL
same,MIC,[3],(0.00001) % w/v
same,MIC,[3]; mean ± StDev of 3 experiments,0.10 ± 0.00 µg/mL
same,MIC,[4],(0.0020) % w/v
same,MIC,[4]; mean ± StDev of 3 experiments,20.83 ± 7.22 µg/mL
same,MIC,[5],(0.00001) % w/v
same,MIC,[5]; mean ± StDev of 3 experiments,0.13 ± 0.06 µg/mL
same,MIC for “good” strains,[6],0.1 to 10.4 µg/mL
same,MIC,[7],(0.0010) % w/v
same,MIC,[7]; mean ± StDev of 3 experiments,10.42 ± 3.61 µg/mL
same,MIC,[8],(0.00003) % w/v
same,MIC,[8]; mean ± StDev of 3 experiments,0.26 ± 0.11 µg/mL
same,MIC,[9],(0.00007) % w/v
same,MIC,[9]; mean ± StDev of 3 experiments,0.65 ± 0.23 µg/mL
same,MIC for “bad” strains,[10],0.1 to 20.8 µg/mL
same,MIC,[11],(0.00002) % w/v
same,MIC,[11]; mean ± StDev of 3 experiments,0.20 ± 0.00 µg/mL
same,MIC,[12],(0.00013) % w/v
same,MIC,[12]; mean ± StDev of 3 experiments,1.04 ± 0.45 µg/mL
same,MIC,[13],(0.00001) % w/v
same,MIC,[13]; mean ± StDev of 3 experiments,0.11 ± 0.07 µg/mL
same,MIC,[14],(0.00003) % w/v
same,MIC,[14]; mean ± StDev of 3 experiments,0.31 ± 0.41 µg/mL
